Data set [1] is described as follows: Stability in human plasma (UPLC-MS quantification). In kind it is in vitro ADME. To be noted: FIG. 7B. As to the method:
To plot a standard calibration curve, the stock sample was diluted by half with acetonitrile from 125 to 0.39 μg/mL to prepare standard solutions for a total of 10 samples at different concentrations, and the calibration curve was plotted as shown in FIG. 7A.
For the experiment of verifying stability in plasma, 10 μL of the test drug prepared at a concentration of 100 μg/mL was added to 90 μL of human plasma and mixed for 30 seconds, and then immediately after the addition, the plasma-mixed test drug was incubated for 15, 30, 60, or 120 minutes to prepare samples. Afterward, 400 μL of 100% ethyl acetate was added to each sample and extracted using a vortex mixture for 1 minute. […] Initially, the mobile phase B was increased from 5% to 95% until 9 minutes and analyzed, the mobile phase B was maintained 95% until 12 minutes, and then the mobile phase B was lowered to 5% and equilibrated, and used in the subsequent analysis. the flow rate of the mobile phase was 0.3 mL/min, the sample injection volume was 2 μL, and the mass spectrometer was operated in the ESI-positive mode. The spray voltage was set to 3.5 kV, and the flow rates of the nitrogen sheath gas, auxiliary gas, and sweep gas were analyzed as 50, 10, and 1 (arbitrary units), respectively. […]

A further data set concerns iNOS and COX-2. Briefly: iNOS and COX-2 immunoblotting in LPS-stimulated BV-2 cells. In kind it is cell-based, mouse. To be noted: BV-2, 30, 10, or 3.33 μM, LPS 1 μg/mL 24 hours, FIG. 6C. The protocol:
To further confirm the oxidative stress suppression effect, the content of nitrite released due to an inflammatory response and the expression levels of iNOS, which is an enzyme that produces nitric oxide, and COX-2, which is cyclooxygenase-2, were determined in mouse microglial cells (BV-2, ATCC, Manassas, VA, USA).
To determine the content of nitrite and the protein expression levels of iNOS and COX-2, BV-2 was seeded in a 12-well plate (Corning, MD, USA) at 1.5×10^5 cells/well, and cultured using a DMEM medium (Corning, MD, USA) containing 10% fetal bovine serum (Corning, MD, USA) and 100 U/mL of penicillin/streptomycin (Corning, MD, USA) at 37° C. in a 5% CO2 incubator for one day for stabilization. […] 1 μg/mL of LPS (Sigma, USA) was added to all experimental groups excluding the non-inflammation-induced group and allowed to react at 37° C. in a 5% CO2 incubator for 24 hours.
The cells from which the cell culture medium was removed were disrupted by adding a RIPA buffer containing a protease inhibitor cocktail (Thermo Fisher Scientific), and centrifuged at 14,000 rpm for 15 minutes at 4° C. to obtain a cell extract. Equal amounts of the cell extract were loaded, and proteins were separated through SDS-PAGE and then transferred to a PVDF membrane. […]

In a further data set the test system is TNF-α, IL-1β, and IL-6. Description: Pro-inflammatory cytokine mRNA (RT-PCR) in LPS-stimulated BV-2 cells. In kind it is cell-based, mouse. To be noted: BV-2, 30, 10, or 3.33 μM, LPS 1 μg/mL 6 hours, FIG. 5B. As to the method: BV-2 was plated in a 6-well plate (Corning, MD, USA) at 5×10^5 cells/well, and cultured using a DMEM medium (Corning, MD, USA) containing 10% fetal bovine serum (Corning, MD, USA) and 100 U/mL of penicillin/streptomycin (Corning, MD, USA) at 37° C. in a 5% CO2 incubator for one day for stabilization. […] 1 μg/mL of LPS (Sigma, USA) was added to all experimental groups excluding the non-inflammation-induced group and allowed to react at 37° C. in a 5% CO2 incubator for 6 hours.
The drug-treated BV-2 underwent RNA prep according to kit manual using an RNA prep kit (Monarch Total RNA Miniprep kit, NEB, UK), and the concentration was measured using a nanophotometer (NP80, Implen, Germany). According to the concentration of each RNA sample, 1 μg of RNA was added and cDNA was synthesized according to the manual of the cDNA synthesis kit (LunaScript RT SuperMix kit, NEB, UK).
The expression level of each cytokine in the synthesized cDNA was analyzed and compared using Real-Time PCR (StepOne™Bioscience, USA) equipment. […] The Cr value for the gene of each sample obtained through real-time PCR was normalized by the value of the internal control gene (GAPDH) of each sample, the expression level was estimated inversely by 2ΔΔCT calculation, and the resulting value of each group was quantified and expressed as a percentage relative to the LPS-only treatment group.

The values that follow come from patent US20250195491A1 (AEVIS BIO, INC., priority 2022, published 2025).

As for `Nc1cccc2c1C(=S)N(C1CCC(=O)NC1=O)C2=O` (stereo not shown) [3-MP, 3-thiopomalidomide], the “stability in human plasma over time” value in data set [1] (0 to 120 minutes) is recorded as “maintained without significant changes in plasma from 0 to 120 minutes”. Moreover, the “plasma level immediately after plasma addition” value in data set [1] (0 minutes) was 80 µg/mL. For the same compound, the “expression of oxidative stress-associated proteins (iNOS and COX-2)” value with iNOS and COX-2 is recorded as “effectively reduced”. For the same compound, the “pro-inflammatory cytokine inhibition effect (mRNA)” value in the data set with TNF-α, IL-1β, and IL-6 is recorded as “higher pro-inflammatory cytokine inhibition effect than pomalidomide”.
